This is an account of results in PMC3809587, “Structure and function of the Smoothened extracellular domain in vertebrate Hedgehog signaling” (eLife, 2013).

One experiment deals with Zebrafish embryos. Description: Zebrafish embryo treatment: eng2a:GFP reporter and ptch2 in situ hybridization. Format: in vivo. The settings on record: 30hpf embryos, 20(S)-OHC 50 µM; for eng2a:GFP reporter expression: cyclopamine 40 µM. The method, then: Adult fishes were maintained on a 14-hr light/10-hr dark cycle at 28°C in the AVA (Singapore) certified IMCB Zebrafish Facility. Zebrafish strain used was Tg(eng2a:eGFP)^i233 ([Maurya et al., 2011]).
The embryos of Tg(eng2a:eGFP)^i233 were dechorinated using pronase (Roche) at one cell stage. […] Control embryos were kept in water containing the same amount of ethanol, used as the vehicle for the drugs. Standard in situ hybridization (ISH) was performed with anti-Dig alkaline phosphatase and chromogenic substrate NBT/BCIP as previously described ([Oxtoby and Jowett, 1993]). ptch2 (formerly ptc1) RNA probe was prepared from template as previously described ([Concordet et al., 1996]).

For the next experiment, the target named is T1, zSmo ectodomain (Danio rerio, UniProt Q5RH73).
T1 construct: zSmo-ectodomain: a.a; 29–212), fused C-terminally with a with a hexa-histidine (His6) tag; His6 (C); made in house
T1 sequence (Q5RH73 29-212): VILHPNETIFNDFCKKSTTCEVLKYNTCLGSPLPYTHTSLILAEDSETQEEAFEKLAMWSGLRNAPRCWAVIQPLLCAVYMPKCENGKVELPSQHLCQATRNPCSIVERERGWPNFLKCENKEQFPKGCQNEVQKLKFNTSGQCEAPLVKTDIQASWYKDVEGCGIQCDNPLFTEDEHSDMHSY
Description: Ligand affinity chromatography: zSmo ectodomain binding to 20(S)-OHC beads. Further details: species or system zebrafish. On the procedure:
For ligand affinity chromatography with purified mSmo CRD-Fc or zSmo ectodomain, protein was diluted in 20 mM Tris pH 8.5, 150 mM NaCl, 0.3% octyl-glucoside prior to addition of competitors and 20(S)-OHC beads. After binding was allowed to proceed for 12 hr at 4°C, the resin was washed and captured protein was eluted as described above. The presence of mSmo CRD-Fc was measured by an anti-human HRP-coupled antibody (1:20,000) or anti-human IR800-coupled antibody (1:10,000; for all quantitation, detected by LiCor Odyssey). The presence of zSmo ectodomain protein was measured by colloidal Coomassie staining (GelCode Blue, Pierce/Thermo Scientific).
For Hh reporter assays, each point is reported as the mean ± standard deviation (SD) derived from triplicates. Each result in the paper was repeated at least three times with similar outcomes. Relative luciferase activity was calculated by dividing Gli luciferase by Renilla luciferase luminescence. Fold-change in reporter activity was calculated by dividing each replicate by the mean reporter activity of the vehicle-treated control. Normalized (% of max) Hh reporter activity was calculated by setting the maximum value of a set to 100% and zero to 0% using the ‘normalize’ function of GraphPad Prism. […]

Experiment [1] deals with T2, YFP-mSmo (Mus musculus, UniProt P56726).
T2 construct: Smo^−/− cells stably expressing full-length (FL) YFP-mSmo or ΔCRD-YFP-mSmo were treated with Shh, SAG (100 nM) or 20(S)-OHC (10 μM); expressed in transfected cells
T2 sequence (P56726 33-793): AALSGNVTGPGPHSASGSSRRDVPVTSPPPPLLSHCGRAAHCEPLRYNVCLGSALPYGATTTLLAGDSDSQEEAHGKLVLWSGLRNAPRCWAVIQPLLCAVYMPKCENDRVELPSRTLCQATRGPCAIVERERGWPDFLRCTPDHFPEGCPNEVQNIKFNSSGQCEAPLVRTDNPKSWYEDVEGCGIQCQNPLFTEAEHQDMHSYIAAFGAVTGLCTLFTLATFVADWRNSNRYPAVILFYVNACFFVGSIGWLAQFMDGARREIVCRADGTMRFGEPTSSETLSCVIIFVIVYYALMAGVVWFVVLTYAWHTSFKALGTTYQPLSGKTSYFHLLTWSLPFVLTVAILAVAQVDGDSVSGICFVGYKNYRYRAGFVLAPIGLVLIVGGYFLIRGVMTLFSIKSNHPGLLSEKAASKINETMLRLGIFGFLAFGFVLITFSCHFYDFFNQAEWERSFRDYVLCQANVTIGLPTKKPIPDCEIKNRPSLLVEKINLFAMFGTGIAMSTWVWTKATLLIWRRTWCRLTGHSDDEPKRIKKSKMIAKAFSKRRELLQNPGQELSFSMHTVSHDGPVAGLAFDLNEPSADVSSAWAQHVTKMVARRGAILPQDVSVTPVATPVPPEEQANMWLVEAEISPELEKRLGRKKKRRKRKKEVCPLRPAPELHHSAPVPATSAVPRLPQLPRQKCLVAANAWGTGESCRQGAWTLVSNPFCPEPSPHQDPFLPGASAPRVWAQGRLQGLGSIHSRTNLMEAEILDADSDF
Description: Gli1 and Gli3R immunoblot in Smo−/−:YFP-mSmo cells. Type of experiment: cell-based. The note with it: SAG 100 nM, 20(S)-OHC 10 μM. The method, then:
Cultured cells stably expressing YFP-mSmo, ΔCRD-YFP-mSmo, or ΔC-YFP-mSmo were scraped into ice-cold PBS containing SigmaFast Protease inhibitor cocktail (Sigma) and collected as a pellet by centrifugation (1000×g, 10 min, 4°C). Cells were lysed (1 hr, 4°C) by agitation in modified RIPA buffer (50 mM sodium-Tris pH 7.4, 150 mM sodium chloride, 2% NP-40, 0.5% deoxycholate, 0.1% sodium-dodecyl sulfate [SDS], 1 mM dithiothreitol and the SigmaFast Protease inhibitor cocktail). After clarification (20,000×g, 45 min, 4°C), the protein concentration of each lysate was measured using the bicinchoninic acid assay (BCA, Pierce/Thermo Scientific, Rockford, IL). Lysate aliquots containing equal amount of total protein were fractionated on an 8% SDS-PAGE gel and transferred to a nitrocellulose membrane for immunoblotting with anti-Gli1 antibody (#L42B10, 1:500; Cell Signaling, Denvers, MA), anti-GFP antibody (1:5000; Novus, Littleton, CO), anti-Gli3 antibody (AF3690 1:200; R&D, Minneapolis, MN) and anti-p38 antibody (ab31828, 1:2000; Abcam, Cambridge, MA). In Figures 1–4, vertical dashed black lines represent non-contiguous lanes from the same immunoblot juxtaposed for clarity.

Experiment [2] concerns Drosophila melanogaster Smo (dSmo) and dSmo CRD. Briefly: 20(S)-OHC bead binding of Drosophila Smo. The settings on record: bead-immobilized 20(S)-OHC.
The target in the next experiment is T3, mSmo CRD-Fc (Mus musculus, UniProt P56726).
T3 construct: made in house; host or cells: 293F suspension cells (secreted)
T3 sequence (P56726 33-183): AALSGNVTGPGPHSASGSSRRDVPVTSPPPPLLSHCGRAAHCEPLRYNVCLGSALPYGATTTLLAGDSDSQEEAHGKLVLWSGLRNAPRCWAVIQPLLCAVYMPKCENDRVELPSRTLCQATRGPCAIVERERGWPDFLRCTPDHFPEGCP
Description: Ligand affinity chromatography: mSmo CRD-Fc binding to 20(S)-OHC beads. The note with it: for inhibition of binding of mSmo CRD-Fc to 20(S)-OHC beads: free compound added as competitor. The method, then: After binding was allowed to proceed for 12 hr at 4°C, the resin was washed and captured protein was eluted as described above. The presence of mSmo CRD-Fc was measured by an anti-human HRP-coupled antibody (1:20,000) or anti-human IR800-coupled antibody (1:10,000; for all quantitation, detected by LiCor Odyssey). The presence of zSmo ectodomain protein was measured by colloidal Coomassie staining (GelCode Blue, Pierce/Thermo Scientific). […]

The next experiment has as its target T4, ΔCRD-YFP-mSmo (Mus musculus, UniProt P56726, DEL68-184).
T4 construct: All mSmo mutants were made using Quickchange or PCR methods in the context of a previously described construct encoding full-length mouse Smo (UniProt P56726); expressed in transfected cells
Briefly: Hh signaling by ΔCRD-YFP-mSmo in Smo−/− cells (immunoblot, Hh reporter). Type of experiment: cell-based.

In experiment [3] the target is T2, YFP-mSmo. Description: 20(S)-OHC bead pull-down of YFP-mSmo from cell lysates. Type of experiment: binding. The note with it: 50 μM free 20(S)-OHC as competitor. On the procedure: 293T cells transfected with constructs encoding mSmo variants were lysed in hypotonic SEAT buffer (250 mM sucrose, 1 mM EDTA, 10 mM acetic acid, 10 mM triethanolamine and the SigmaFast EDTA-Free protease inhibitor cocktail). After the removal of nuclei by centrifugation (900×g, 5 min, 4°C), membranes were pelleted by ultracentrifugation (95,000×g, 30 min) and solubilized in a n-dodecyl-β-D-maltopyranoside (DDM) extraction buffer (50 mM Tris pH 7.4, 150 mM NaCl, 10% vol/vol glycerol, 0.5% wt/vol DDM and the SigmaFast EDTA-Free protease inhibitor cocktail) for 2 hr at 4°C, followed by removal of insoluble material by ultracentrifugation (100,000×g, 30 min). This DDM membrane extract was incubated with 20(S)-OHC beads for 12 hr at 4°C to allow binding to equilibrium. After extensive washing, proteins captured on the beads were eluted with reducing SDS sample buffer. The presence of YFP-mSmo in these eluates was determined by quantitative immunoblotting with an anti-YFP antibody (NB600-308, 1:5000; Novus) and infrared imaging (Li-Cor Odyssey).

The subject of experiment [4] is Hh reporter (8xGli-responsive promoter). The note with it: ref Nachtergaele et al., 2012; cited from earlier work.
For experiment [5], the system named is endogenous mSmo in cilia of NIH 3T3 cells. Further details: method as in Rohatgi et al., 2009. The note with it: absence of Shh; ref Rohatgi et al., 2009; cited from earlier work.
Experiment [6] shares this test system. Briefly: Immunofluorescence of ciliary Smo accumulation. Type of experiment: cell-based, mouse. The note with it: NIH 3T3, 4 hr, presence of Shh.

T4 sequence (P56726 with tags, fused parts or gaps DEL68-184): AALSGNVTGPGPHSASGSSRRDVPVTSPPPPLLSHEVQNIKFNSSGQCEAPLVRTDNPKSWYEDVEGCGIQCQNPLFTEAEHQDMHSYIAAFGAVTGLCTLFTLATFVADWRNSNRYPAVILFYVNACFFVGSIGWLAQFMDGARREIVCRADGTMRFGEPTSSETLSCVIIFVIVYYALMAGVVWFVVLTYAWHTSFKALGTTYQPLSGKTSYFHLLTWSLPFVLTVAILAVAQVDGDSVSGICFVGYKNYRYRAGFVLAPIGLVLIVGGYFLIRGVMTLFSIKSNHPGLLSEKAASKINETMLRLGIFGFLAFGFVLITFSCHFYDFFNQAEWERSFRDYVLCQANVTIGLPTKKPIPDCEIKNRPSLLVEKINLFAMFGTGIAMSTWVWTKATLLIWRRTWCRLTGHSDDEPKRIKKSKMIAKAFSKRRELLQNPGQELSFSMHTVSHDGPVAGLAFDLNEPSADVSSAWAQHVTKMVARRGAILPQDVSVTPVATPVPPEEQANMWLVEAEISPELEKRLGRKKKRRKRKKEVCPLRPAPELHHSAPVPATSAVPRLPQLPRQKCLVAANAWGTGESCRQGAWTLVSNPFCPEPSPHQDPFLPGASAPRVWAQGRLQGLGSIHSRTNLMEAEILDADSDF

As for `CC(C)CCC[C@](C)(O)[C@H]1CC[C@H]2[C@@H]3CC=C4C[C@@H](O)CC[C@]4(C)[C@H]3CC[C@@]21C` [20(S)-OHC, 20(S)-hydroxycholesterol], in the experiment with Zebrafish embryos, the “ptch2 expression by in situ hybridization” value is “modest expansion of the expression domain” and the “eng2a:GFP reporter expression” value is on record as “significant increase in the number of GFP positive fast twitch muscles”. On zSmo ectodomain (fixed amount of protein, increasing amounts of bead-immobilized sterol, read-out: Kd, zSmo ectodomain-20(S)-OHC interaction), the Kd is roughly 170 nM. The “inhibition of binding of zSmo ectodomain to 20(S)-OHC beads” value at zSmo ectodomain (free compound added as competitor) was “inhibited in a dose-responsive fashion”. Moreover, at YFP-mSmo [1], the Gli3R level entry is “loss of the repressor form of Gli3 (Gli3R) was observed” and the “activation of Hh target gene Gli1” value is “could activate a Hh target gene, Gli1”. Also, in experiment [2], the “binding of dSmo and dSmo CRD to 20(S)-OHC beads” value was “failed to bind 20(S)-OHC beads”. At mSmo CRD-Fc (fixed amount of protein, increasing amounts of bead-immobilized sterol, read-out: Kd, mSmo CRD-Fc-20(S)-OHC interaction), the Kd was roughly 180 nM. For the same compound, the “inhibition of binding of mSmo CRD-Fc to 20(S)-OHC beads” value on mSmo CRD-Fc is reported as “Binding could be inhibited”. Further, on ΔCRD-YFP-mSmo (SAG 100 nM, 20(S)-OHC 10 μM), the “response of ΔCRD-YFP-mSmo to agonist (Hh target genes, Gli3R)” value is “failed to activate Hh target genes or to extinguish Gli3R levels”. For the same compound, the “competition of YFP-mSmo binding to 20(S)-OHC beads” value on YFP-mSmo [3] is recorded as “Binding to beads was not seen”.
With `CC1=C2C[C@H]3[C@@H](CC=C4C[C@@H](O)CC[C@@]43C)[C@@H]2CC[C@]12O[C@@H]1C[C@H](C)CN[C@H]1[C@H]2C` [cyclopamine], the “potency against Shh-activated Smo compared to 20(S)-OHC-activated Smo” value in experiment [4] is “much less potent”. Moreover, the “eng2a:GFP reporter expression” value in the experiment with Zebrafish embryos is given as “suppressed expression of the reporter gene”. For the same compound, the “Smo accumulation in cilia, compound alone” value in experiment [5] was “can drive Smo accumulation in cilia even in the absence of Shh”. In addition, in [6], the “Shh-induced Smo accumulation in cilia” value was “do not block Smo ciliary accumulation”. At mSmo CRD-Fc, the “inhibition of binding of mSmo CRD-Fc to 20(S)-OHC beads” value is “blocked the interaction”. Also, the “inhibition of SAG activated ΔCRD-YFP-mSmo” value against ΔCRD-YFP-mSmo (SAG 25 nM, cyclopamine 5 μM, Hh reporter) is “remained susceptible to inhibition by cyclopamine”.
